Measurements: patent US20240270762A1, “PENICILLIN-BINDING PROTEIN INHIBITORS” (priority 2021, published 2024)
Values after ≈ are worked out from the molar mass of the structure shown. Like-named read-outs stand apart in the source and are kept apart here.

Tests used:
N. gonorrhoeae WHO K = test: Liquid broth MIC in Fastidious broth; settings: Neisseria gonorrhoeae
[1] = system: N. gonorrhoeae ATCC 49226; test: Liquid broth MIC in Fastidious broth; settings: Neisseria gonorrhoeae
N. gonorrhoeae CDC-0197 = test: Liquid broth MIC in Fastidious broth; settings: Neisseria gonorrhoeae
N. gonorrhoeae WHO Z = test: Liquid broth MIC in Fastidious broth; settings: Neisseria gonorrhoeae
N. gonorrhoeae WHO Q = test: Liquid broth MIC in Fastidious broth; settings: Neisseria gonorrhoeae
N. gonorrhoeae MS11 = test: Liquid broth MIC in Fastidious broth; settings: Neisseria gonorrhoeae
N. gonorrhoeae FA1090 = test: Liquid broth MIC in Fastidious broth; settings: Neisseria gonorrhoeae
[2] = target: T1, PBP1a from Acinetobacter baumannii (ATCC 19606) (Acinetobacter baumannii, UniProt A0ABX6CK30); test: Bocillin-FL fluorescence polarization competition binding, A. baumannii PBP1a; settings: fluorescence polarization competition binding assay using Bocillin-FL; read-out: A. baumannii PBP1a Potency
T1 sequence (A0ABX6CK30 1-851): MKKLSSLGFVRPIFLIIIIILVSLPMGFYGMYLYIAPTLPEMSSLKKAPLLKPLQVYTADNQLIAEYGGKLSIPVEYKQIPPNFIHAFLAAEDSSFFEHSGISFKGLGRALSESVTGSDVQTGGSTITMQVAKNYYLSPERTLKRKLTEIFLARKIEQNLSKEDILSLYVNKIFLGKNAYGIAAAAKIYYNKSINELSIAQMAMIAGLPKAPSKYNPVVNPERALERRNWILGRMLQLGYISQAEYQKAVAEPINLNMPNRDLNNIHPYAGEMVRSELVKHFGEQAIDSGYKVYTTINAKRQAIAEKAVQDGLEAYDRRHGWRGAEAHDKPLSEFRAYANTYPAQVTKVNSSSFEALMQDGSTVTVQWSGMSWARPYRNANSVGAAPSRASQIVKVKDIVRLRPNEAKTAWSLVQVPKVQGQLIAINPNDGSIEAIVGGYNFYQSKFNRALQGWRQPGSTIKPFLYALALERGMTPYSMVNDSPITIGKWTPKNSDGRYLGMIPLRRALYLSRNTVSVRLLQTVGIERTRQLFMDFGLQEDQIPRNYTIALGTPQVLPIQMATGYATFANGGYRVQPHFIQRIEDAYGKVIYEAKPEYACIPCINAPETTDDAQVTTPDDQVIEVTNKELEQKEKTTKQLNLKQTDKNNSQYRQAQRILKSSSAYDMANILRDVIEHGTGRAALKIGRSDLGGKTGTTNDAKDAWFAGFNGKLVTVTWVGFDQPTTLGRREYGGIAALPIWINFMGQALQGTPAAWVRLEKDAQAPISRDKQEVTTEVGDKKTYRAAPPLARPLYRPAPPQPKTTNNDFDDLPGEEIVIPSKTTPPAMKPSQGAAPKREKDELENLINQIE
How it was run: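 Purified PBP was preincubated with inhibitor (E. coli PBP3 1.5 μM, 30 min; P. aeruginosa PBP3 0.75 μM, A. baumannii PBP3 0.2 μM and PBP1a 1 μM, 15 min), then Bocillin-FL (0.1 μM; 0.05 μM for PBP1a) added and FP read up to 60 min. EC50 = 50% loss of bound probe.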

[3] = read-out: Minimum Inhibitory Concentration (MIC), N. gonorrhoeae WHO K
[4] = ATCC49226, read-out: Minimum Inhibitory Concentration (MIC), N. gonorrhoeae ATCC 49226
[5] = CDC0197, read-out: Minimum Inhibitory Concentration (MIC), N. gonorrhoeae CDC-0197
[6] = read-out: Minimum Inhibitory Concentration (MIC), N. gonorrhoeae WHO Z
[7] = read-out: Minimum Inhibitory Concentration (MIC), N. gonorrhoeae WHO Q
[8] = MS11, read-out: Minimum Inhibitory Concentration (MIC), N. gonorrhoeae MS11
[9] = FA1090, read-out: Minimum Inhibitory Concentration (MIC), N. gonorrhoeae FA 1090
[10] = read-out: Minimum Inhibitory Concentration, WHO K
[11] = ATCC49226, read-out: Minimum Inhibitory Concentration, ATCC 49226
[12] = CDC0197, read-out: Minimum Inhibitory Concentration, CDC-0197
[13] = read-out: Minimum Inhibitory Concentration, WHO Z
[14] = read-out: Minimum Inhibitory Concentration, WHO Q
[15] = MS11, read-out: Minimum Inhibitory Concentration, MS11
[16] = FA1090, read-out: Minimum Inhibitory Concentration, FA 1090

| Compound | MIC (N. gonorrhoeae WHO K; [3]) [µg/mL] | MIC [1, 4] [µg/mL] | MIC (N. gonorrhoeae CDC-0197; [5]) [µg/mL] | MIC (N. gonorrhoeae WHO Z; [6]) [µg/mL] | MIC (N. gonorrhoeae WHO Q; [7]) [µg/mL] | MIC (N. gonorrhoeae MS11; [8]) [µg/mL] | MIC (N. gonorrhoeae FA1090; [9]) [µg/mL] | MIC (N. gonorrhoeae WHO K; [10]) [µg/mL] | MIC [1, 11] [µg/mL] | MIC (N. gonorrhoeae CDC-0197; [12]) [µg/mL] | MIC (N. gonorrhoeae WHO Z; [13]) [µg/mL] | MIC (N. gonorrhoeae WHO Q; [14]) [µg/mL] | IC50 [2] [µM] | MIC (N. gonorrhoeae MS11; [15]) [µg/mL] | MIC (N. gonorrhoeae FA1090; [16]) [µg/mL] |
| --- | --- | --- | --- | --- | --- | --- | --- | --- | --- | --- | --- | --- | --- | --- | --- |
| CS(=O)(=O)N1CCN(C(=O)N[C@H](C(=O)N[C@H]2Cc3cccc(C(=O)O)c3OB2O)c2ccc(P(=O)(O)O)cc2)C1=O (single isomer, unassigned) [Example 5] | 1 to 2 (≈ 1.64 to 3.28 µM) | < 1 | < 1 | < 1 | < 1 | < 1 | < 1 | – | – | – | – | – | – | – | – |
| CS(=O)(=O)N1CCN(C(=O)N[C@@H](C(=O)N[C@H]2Cc3cccc(C(=O)O)c3OB2O)c2ccc(P(=O)(O)O)cc2)C1=O (single isomer, unassigned) [Example 6] | < 1 | < 1 | < 1 | < 1 | < 1 | < 1 | < 1 | – | – | – | – | – | – | – | – |
| CCN1CCN(C(=O)NC(C(=O)N[C@H]2Cc3cccc(C(=O)O)c3OB2O)c2ccc(P(=O)(O)O)cc2F)C(=O)C1=O (stereo partly drawn) [Example 1, (3R)-3-(2-(4-ethyl-2,3-dioxopiperazine-1-carboxamido)-2-(2-fluoro-4-phosphonophenyl)acetamido)-2-hydroxy-3,4-dihydro-2H-benzo[e][1,2]oxaborinine-8-carboxylic acid] | < 1 | < 1 | < 1 | < 1 | < 1 | < 1 | < 1 | – | – | – | – | – | – | – | – |
| CCN1CCN(C(=O)NC(C(=O)N[C@H]2Cc3cccc(C(=O)O)c3OB2O)c2cc(P(=O)(O)O)ccc2F)C(=O)C1=O (stereo partly drawn) [Example 2, (3R)-3-(2-(4-ethyl-2,3-dioxopiperazine-1-carboxamido)-2-(2-fluoro-5-phosphonophenyl)acetamido)-2-hydroxy-3,4-dihydro-2H-benzo[e][1,2]oxaborinine-8-carboxylic acid] | 16 to 32 (≈ 26.4 to 52.8 µM) | 4 to 8 (≈ 6.6 to 13.2 µM) | 4 to 8 (≈ 6.6 to 13.2 µM) | 4 to 8 (≈ 6.6 to 13.2 µM) | 4 to 8 (≈ 6.6 to 13.2 µM) | 4 to 8 (≈ 6.6 to 13.2 µM) | < 1 | – | – | – | – | – | – | – | – |
| NCCN1CCN(C(=O)NC(C(=O)N[C@H]2Cc3cccc(C(=O)O)c3OB2O)c2ccc(P(=O)(O)O)cc2)C(=O)C1=O (stereo partly drawn) [Example 3, (3R)-3-(2-(4-(2-aminoethyl)-2,3-dioxopiperazine-1-carboxamido)-2-(4-phosphonophenyl)acetamido)-2-hydroxy-3,4-dihydro-2H-benzo[e][1,2]oxaborinine-8-carboxylic acid] | 4 to 8 (≈ 6.63 to 13.3 µM) | < 1 | 1 to 2 (≈ 1.66 to 3.32 µM) | 1 to 2 (≈ 1.66 to 3.32 µM) | 1 to 2 (≈ 1.66 to 3.32 µM) | 1 to 2 (≈ 1.66 to 3.32 µM) | < 1 | – | – | – | – | – | – | – | – |
| O=C(O)c1cccc2c1OB(O)[C@@H](NC(=O)C(NC(=O)N1CCN(CC(F)(F)F)C(=O)C1=O)c1ccc(P(=O)(O)O)cc1)C2 (stereo partly drawn) [Example 4, (3R)-3-(2-(2,3-dioxo-4-(2,2,2-trifluoroethyl)piperazine-1-carboxamido)-2-(4-phosphonophenyl)acetamido)-2-hydroxy-3,4-dihydro-2H-benzo[e][1,2]oxaborinine-8-carboxylic acid] | 1 to 2 (≈ 1.56 to 3.11 µM) | < 1 | 1 to 2 (≈ 1.56 to 3.11 µM) | 1 to 2 (≈ 1.56 to 3.11 µM) | 1 to 2 (≈ 1.56 to 3.11 µM) | < 1 | < 1 | – | – | – | – | – | – | – | – |
| O=C(NCCCS(=O)(=O)N1CCN(C(=O)NC(C(=O)N[C@H]2Cc3ccc(F)c(C(=O)O)c3OB2O)c2cc(F)c(O)c(O)c2Cl)C1=O)Nc1cccc(O)c1 (stereo partly drawn) [Example 277, (3R)-3-(2-(2-chloro-5-fluoro-3,4-dihydroxyphenyl)-2-(3-((3-(3-(3-hydroxyphenyl)ureido)propyl)sulfonyl)-2-oxoimidazolidine-1-carboxamido)acetamido)-7-fluoro-2-hydroxy-3,4-dihydro-2H-benzo[e][1,2]oxaborinine-8-carboxylic acid] | – | – | – | – | – | – | – | > 64 | 16 to 32 (≈ 19.7 to 39.5 µM) | 16 to 32 (≈ 19.7 to 39.5 µM) | 16 to 32 (≈ 19.7 to 39.5 µM) | 16 to 32 (≈ 19.7 to 39.5 µM) | > 250 | 16 to 32 (≈ 19.7 to 39.5 µM) | 1 to 2 (≈ 1.23 to 2.47 µM) |
| O=C(NCCCS(=O)(=O)N1CCN(C(=O)NC(C(=O)N[C@H]2Cc3ccc(F)c(C(=O)O)c3OB2O)c2cc(F)c(O)c(O)c2Cl)C1=O)Nc1cccnc1 (stereo partly drawn) [Example 278, (3R)-3-(2-(2-chloro-5-fluoro-3,4-dihydroxyphenyl)-2-(2-oxo-3-((3-(3-(pyridin-3-yl)ureido)propyl)sulfonyl)imidazolidine-1-carboxamido)acetamido)-7-fluoro-2-hydroxy-3,4-dihydro-2H-benzo[e][1,2]oxaborinine-8-carboxylic acid] | – | – | – | – | – | – | – | > 64 | 16 to 32 (≈ 20.1 to 40.2 µM) | 16 to 32 (≈ 20.1 to 40.2 µM) | 16 to 32 (≈ 20.1 to 40.2 µM) | 16 to 32 (≈ 20.1 to 40.2 µM) | > 250 | 16 to 32 (≈ 20.1 to 40.2 µM) | 4 to 8 (≈ 5.03 to 10.1 µM) |
| O=C(NCCN1CCN(C(=O)N[C@@H](C(=O)N[C@H]2Cc3ccc(F)c(C(=O)O)c3OB2O)c2cc(F)c(O)c(O)c2Cl)C1=O)Nc1ccc(O)cc1 [Example 279, (R)-3-((R)-2-(2-chloro-5-fluoro-3,4-dihydroxyphenyl)-2-(3-(2-(3-(4-hydroxyphenyl)ureido)ethyl)-2-oxoimidazolidine-1-carboxamido)acetamido)-7-fluoro-2-hydroxy-3,4-dihydro-2H-benzo[e][1,2]oxaborinine-8-carboxylic acid] | – | – | – | – | – | – | – | 16 to 32 (≈ 21.8 to 43.7 µM) | 4 to 8 (≈ 5.46 to 10.9 µM) | 4 to 8 (≈ 5.46 to 10.9 µM) | 4 to 8 (≈ 5.46 to 10.9 µM) | 16 to 32 (≈ 21.8 to 43.7 µM) | > 250 | 4 to 8 (≈ 5.46 to 10.9 µM) | < 1 |
| O=C(O)c1c(F)ccc2c1OB(O)[C@@H](NC(=O)C(NC(=O)N1CCN(CC3CCN(C(=O)c4cccc(O)c4)CC3)C(=O)C1=O)c1cc(F)c(O)c(O)c1Cl)C2 (stereo partly drawn) [Example 475, (3R)-3-(2-(2-chloro-5-fluoro-3,4-dihydroxyphenyl)-2-(4-((1-(3-hydroxybenzoyl)piperidin-4-yl)methyl)-2,3-dioxopiperazine-1-carboxamido)acetamido)-7-fluoro-2-hydroxy-3,4-dihydro-2H-benzo[e][1,2]oxaborinine-8-carboxylic acid] | – | – | – | – | – | – | – | – | – | – | – | – | > 250 | – | – |
| O=C(O)c1c(F)ccc2c1OB(O)[C@@H](NC(=O)C(NC(=O)N1CCN(CC3CCN(C(=O)Nc4cccc(O)c4)CC3)C(=O)C1=O)c1cc(F)c(O)c(O)c1Cl)C2 (stereo partly drawn) [Example 477, (3R)-3-(2-(2-chloro-5-fluoro-3,4-dihydroxyphenyl)-2-(4-((1-((3-hydroxyphenyl)carbamoyl)piperidin-4-yl)methyl)-2,3-dioxopiperazine-1-carboxamido)acetamido)-7-fluoro-2-hydroxy-3,4-dihydro-2H-benzo[e][1,2]oxaborinine-8-carboxylic acid] | – | – | – | – | – | – | – | – | – | – | – | – | > 250 | – | – |
| O=C(O)c1c(F)ccc2c1OB(O)[C@@H](NC(=O)C(NC(=O)N1CCN(C3CCN(C(=O)Nc4cccc(O)c4F)CC3)C(=O)C1=O)c1cc(F)c(O)c(O)c1Cl)C2 (stereo partly drawn) [Example 478, (3R)-3-(2-(2-chloro-5-fluoro-3,4-dihydroxyphenyl)-2-(4-(1-((2-fluoro-3-hydroxyphenyl)carbamoyl)piperidin-4-yl)-2,3-dioxopiperazine-1-carboxamido)acetamido)-7-fluoro-2-hydroxy-3,4-dihydro-2H-benzo[e][1,2]oxaborinine-8-carboxylic acid] | – | – | – | – | – | – | – | – | – | – | – | – | > 250 | – | – |
